Assays:
Assay in all cases: shift of O2 affinity (P50), thin-film O2 equilibrium curves
Details in all cases: allosteric effector of O2 binding; 0.5 mM DPG (twofold molar excess over tetramer) vs stripped Hb; no Cl-; 0.1 M HEPES, pH 7.2, 37 °C
dugong Hb (HbA; α2β/δ2) = target: T1, dugong Hb (HbA; α2β/δ2) (Dugong dugon, UniProt A0A481WQB0)
T1 construct: gene HBB; recombinant tetramer, E. coli JM109 (DE3) with co-expressed methionine aminopeptidase, codon-optimised, ion exchange purified; with Hemoglobin subunit alpha

[1] = target: T2, Steller's sea cow Hb (H. gigas HbA; α2β/δ2) (Hydrodamalis gigas, UniProt A0A481WR13)
T2 construct: gene HBB; recombinant tetramer, E. coli JM109 (DE3) with co-expressed methionine aminopeptidase, codon-optimised, ion exchange purified; natural β/δ82Asn; with Hemoglobin subunit alpha

[2] = target: T3, Steller's sea cow Hb (H. gigas HbA; α2β/δ2) (Hydrodamalis gigas, UniProt A0A481WR13, N83K)
T3 construct: gene HBB; recombinant tetramer, E. coli JM109 (DE3) with co-expressed methionine aminopeptidase, codon-optimised, ion exchange purified; natural β/δ82Asn; with Hemoglobin subunit alpha
T3 sequence (A0A481WNT7 entry or part of it, stated change not applied): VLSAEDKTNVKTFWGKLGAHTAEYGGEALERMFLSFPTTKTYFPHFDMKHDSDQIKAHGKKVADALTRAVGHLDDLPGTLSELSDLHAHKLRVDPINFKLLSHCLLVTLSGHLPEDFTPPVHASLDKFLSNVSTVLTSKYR
T3 sequence (A0A481WR13 entry or part of it N83K): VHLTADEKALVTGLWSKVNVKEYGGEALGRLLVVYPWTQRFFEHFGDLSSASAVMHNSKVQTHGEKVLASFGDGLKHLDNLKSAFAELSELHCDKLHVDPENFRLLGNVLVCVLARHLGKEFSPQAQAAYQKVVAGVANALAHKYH

T1 sequence (A0A481WNF4 entry or part of it): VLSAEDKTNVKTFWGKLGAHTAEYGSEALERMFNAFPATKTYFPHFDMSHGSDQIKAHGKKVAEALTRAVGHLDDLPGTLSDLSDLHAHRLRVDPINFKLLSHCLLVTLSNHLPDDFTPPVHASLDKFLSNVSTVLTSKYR
T1 sequence (A0A481WQB0 entry or part of it): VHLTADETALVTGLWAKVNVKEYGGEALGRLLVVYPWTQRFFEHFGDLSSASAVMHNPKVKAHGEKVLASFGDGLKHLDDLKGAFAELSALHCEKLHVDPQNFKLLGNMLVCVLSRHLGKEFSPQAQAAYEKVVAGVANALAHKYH
T2 sequence (A0A481WR13 entry or part of it): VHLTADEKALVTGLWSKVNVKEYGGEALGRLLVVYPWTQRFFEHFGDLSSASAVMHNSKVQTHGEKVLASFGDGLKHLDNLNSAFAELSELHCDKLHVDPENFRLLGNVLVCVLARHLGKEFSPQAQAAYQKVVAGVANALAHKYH
T2 sequence (A0A481WNT7 entry or part of it, further chain): as the sequence (A0A481WNT7 entry or part of it, stated change not applied) above

ΔlogP50(DPG-stripped) (dugong Hb (HbA; α2β/δ2)): 0.30 log units (P50 in mm Hg)
ΔlogP50(DPG-stripped) [1]: 0.02 log units (P50 in mm Hg)
SMILES: O=C(O)[C@@H](COP(=O)(O)O)OP(=O)(O)O [2,3-diphosphoglycerate]
ΔlogP50(DPG-stripped) [2]: reversion to the ancestral state restores the DPG effect to the same level

From publication PMC10284601, “Evolution of an extreme hemoglobin phenotype contributed to the sub-Arctic specialization of extinct Steller’s sea cows” (eLife, 2023)
